Source: patent US9512120B2, “Microbicidally active imidazopyridine derivatives” (Syngenta Participations AG, priority 2013, dated 2016)

Legend:
Gaeumannomyces graminis = Gaeumannomyces graminis / liquid culture (take-all of cereals); assay type: cell-based; conditions: PDB, 24° C., 4-5 days after application, read-out: control of Gaeumannomyces graminis (inhibition of growth, photometric)
Procedure, shortened: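 Growth inhibition, measured by photometry 4-5 days post-application at 24 °C, of fungal mycelial fragments in PDB broth. Test compound applied as DMSO solution at 200 ppm.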

Plasmopara viticola = Plasmopara viticola / grape / leaf disc preventative; assay type: in vivo; conditions: foliar, grape vine leaf disks, inoculated 1 day after application, assessed 6-8 days after application, read-out: control of Plasmopara viticola (percent disease control compared to untreated)
[1] = system: Mycosphaerella graminicola (Septoria tritici); assay: Mycosphaerella graminicola (Septoria tritici) / liquid culture (Septoria blotch); assay type: cell-based; conditions: Zymoseptoria tritici, PDB, 24° C., 4-5 days after application, read-out: control of Mycosphaerella graminicola (inhibition of growth, photometric)
Procedure, shortened: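 Growth inhibition was read photometrically after 4–5 days at 24 °C. The test compound was applied at 200 ppm from DMSO solution, then PDB broth seeded with conidia taken straight from cryogenic storage was added.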

[2] = system: Puccinia recondita f. sp. Tritici; assay: Puccinia recondita f. sp. tritici / wheat / leaf disc preventative (brown rust); assay type: in vivo; conditions: foliar, wheat leaf segments cv Kanzler, inoculated 1 day after application, assessed 7-9 days after application, read-out: control of Puccinia recondita f. sp. Tritici (percent disease control compared to untreated)
Procedure, shortened: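 Preventative test: percent disease control relative to untreated leaf segments was assessed 7-9 days post-application. Wheat (cv Kanzler) leaf discs were treated at 200 ppm and spore-inoculated 1 day afterwards. Discs were held at 19° C and 75% relative humidity under a 12/12 h light cycle.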

[3] = system: Botryotinia fuckeliana (Botrytis cinerea); assay: Botryotinia fuckeliana (Botrytis cinerea) / liquid culture (gray mould); assay type: cell-based; conditions: Vogels broth, 24° C., 3-4 days after application, read-out: control of Botryotinia fuckeliana (inhibition of growth, photometric)
Procedure, shortened: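 Test compound was applied at 200 ppm in DMSO, then Vogels nutrient broth containing cryo-stored B. cinerea conidia was added. Photometric growth-inhibition reading followed after 3-4 days at 24 °C.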

Pyrenophora teres = Pyrenophora teres / barley / leaf disc preventative (net blotch); assay type: in vivo; conditions: foliar, barley leaf segments cv Hasso, inoculated two days after application, assessed 5-7 days after application, read-out: control of Pyrenophora teres (disease control compared to untreated)
Procedure, shortened: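 Preventative leaf-disc test: 200 ppm spray, then spore inoculation after two days on barley cv Hasso segments. Incubation 20 °C, 65% relative humidity, 12 h light/12 h dark; efficacy rated against untreated checks at 5-7 days post-application.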

[4] = system: Thanatephorus cucumeris (Rhizoctonia solani); assay: Thanatephorus cucumeris (Rhizoctonia solani) / liquid culture (foot rot, damping-off); assay type: cell-based; conditions: PDB, 24° C., 3-4 days after application, read-out: control of Thanatephorus cucumeris (inhibition of growth, photometric)
Procedure, shortened: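 At 200 ppm, compounds in DMSO were combined with fresh liquid-culture mycelia in PDB and kept at 24° C; photometric measurement of growth inhibition after 3-4 days.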

[5] = system: Glomerella lagenarium (Colletotrichum lagenarium); assay: Glomerella lagenarium (Colletotrichum lagenarium) / liquid culture (anthracnose); assay type: cell-based; conditions: Colletotrichum orbiculare, PDB, 24° C., 3-4 days after application, read-out: control of Glomerella lagenarium (inhibition of growth, photometric)
Procedure, shortened: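 Test compound, delivered in DMSO at an application rate of 200 ppm, was combined with spore-containing PDB. Photometric growth-inhibition measurement followed 3-4 days of incubation at 24° C.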

[6] = system: Blumeria graminis f. Sp. Tritici (Erysiphe graminis f. Sp. Tritici); assay: Blumeria graminis f. sp. tritici / wheat / leaf disc preventative (powdery mildew on wheat); assay type: in vivo; conditions: foliar, wheat leaf segments cv. Kanzler, inoculated 1 day after application, assessed 6-8 days after application, read-out: control of Blumeria graminis (percent disease control compared to untreated)
Description: Blumeria graminis f. Sp. Tritici (Erysiphe graminis f. Sp. Tritici)/Wheat/Leaf Disc Preventative (Powdery Mildew on Wheat):
Wheat leaf segments cv. Kanzler were placed on agar in a 24-well plate and sprayed with the formulated test compound diluted in water at an application rate of 200 ppm. The leaf disks were inoculated by shaking powdery mildew infected plants above the test plates 1 day after application. The inoculated leaf disks were incubated at 20° C. and 60% relative humidity under a light regime of 24 h darkness followed by 12 h/12 h (dark/light) in a climate chamber and the activity of a compound was assessed as percent disease control compared to untreated when an appropriate level of disease damage appears on untreated check leaf segments (6-8 days after application). The following compounds gave at least 80% control of Blumeria graminis at 200 ppm when compared to untreated control leaf disks under the same conditions, which show extensive disease development: 2, 13, 23, 50, 59, 61, 67, 75, 85, 86, 89, 90, 93, 102, 103, 107, 134, 136, 137, 138, 139, 141, 145, 151, 153, 154, 163, 173, 174

[7] = system: Monographella nivalis (Microdochium nivale); assay: Monographella nivalis (Microdochium nivale) / liquid culture (foot rot cereals); assay type: cell-based; conditions: PDB, 24° C., 4-5 days after application, read-out: control of Monographella nivalis (inhibition of growth, photometric)
Procedure, shortened: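 Cryostored conidia in potato dextrose broth were added to test compound dispensed from DMSO at 200 ppm. Plates were kept at 24° C, and growth inhibition was read photometrically 4-5 days after application.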

[8] = system: Mycosphaerella arachidis (Cercospora arachidicola); assay: Mycosphaerella arachidis (Cercospora arachidicola) / liquid culture (early leaf spot); assay type: cell-based; conditions: PDB, 24° C., 4-5 days after application, read-out: control of Mycosphaerella arachidis (inhibition of growth, photometric)
Description: Mycosphaerella Arachidis (Cercospora arachidicola)/Liquid Culture (Early Leaf Spot): Conidia of the fungus from cryogenic storage were directly mixed into nutrient broth (PDB potato dextrose broth). After placing a DMSO solution of test compound into a 96-well microtiter plate at an application rate of 200 ppm, the nutrient broth containing the fungal spores was added. The test plates are incubated at 24° C. and the inhibition of growth was determined photometrically 4-5 days after application.

Sclerotinia sclerotiorum = Sclerotinia sclerotiorum liquid culture (cottony rot / white mold); assay type: cell-based; conditions: PDB, 24° C., 3-4 days after application, read-out: control of Sclerotinia sclerotiorum (inhibition of growth, photometric)
Procedure, shortened: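 Mycelia fragments of Sclerotinia sclerotiorum in potato dextrose broth were added to compound in DMSO. Cultures incubated at 24° C; growth inhibition determined photometrically 3-4 days after application.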

[9] = system: Phaeosphaeria nodorum (Septoria nodorum); assay: Phaeosphaeria nodorum (Septoria nodorum) / wheat / leaf disc preventative (glume blotch); assay type: in vivo; conditions: Parastagonospora nodorum, foliar, wheat leaf segments cv Kanzler, inoculated 2 days after application, assessed 5-7 days after application, read-out: control of Phaeosphaeria nodorum (percent disease control compared to untreated)
Procedure, shortened: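 Wheat leaf segments (cv Kanzler) on agar sprayed with compound at 200 ppm, inoculated with spores 2 days later. Incubated at 20° C., 75% relative humidity, 12/12 h light/dark; percent disease control versus untreated scored 5-7 days after application.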

| Compound | melting point | inhibition at 20 ppm (Gaeumannomyces graminis) | pest or weed control at 200 ppm (Plasmopara viticola) | inhibition at 20 ppm [1] | pest or weed control at 200 ppm [2] | inhibition at 20 ppm [3] | pest or weed control at 200 ppm (Pyrenophora teres) | inhibition at 20 ppm [4] | inhibition at 20 ppm [5] | pest or weed control at 200 ppm [6] | inhibition at 20 ppm [7] | inhibition at 20 ppm [8] | inhibition at 20 ppm (Sclerotinia sclerotiorum) | pest or weed control at 200 ppm [9] |
| --- | --- | --- | --- | --- | --- | --- | --- | --- | --- | --- | --- | --- | --- | --- |
| CCn1c(-n2ncnc2N)nc2cncc(C(C)=NOCc3ccc(F)cc3)c21 [Compound 135] | 175 to 187 °C | ≥ 80% | ≥ 80% | ≥ 80% | ≥ 80% | ≥ 80% | ≥ 80% | ≥ 80% | – | – | – | – | – | – |
| CCn1c(-n2ncnc2N)nc2cncc(C(C)=NO)c21 [Compound 136, 1-[2-(5-amino-1,2,4-triazol-1-yl)-1-ethyl-imidazo[4,5-c]pyridin-7-yl]ethanone oxime] | 228 to 240 °C | ≥ 80% | – | – | – | – | ≥ 80% | – | ≥ 80% | ≥ 80% | – | – | – | – |
| CCn1c(-n2ncnc2N)nc2cncc(C(C)=NOCC=C(Cl)Cl)c21 [Compound 155] | – | – | ≥ 80% | ≥ 80% | ≥ 80% | ≥ 80% | ≥ 80% | ≥ 80% | ≥ 80% | – | ≥ 80% | ≥ 80% | ≥ 80% | ≥ 80% |
| CCn1c(-n2ncnc2N)nc2cncc(/C(C)=N\OCC(C)C)c21 [Compound 161] | – | – | ≥ 80% | ≥ 80% | ≥ 80% | ≥ 80% | ≥ 80% | ≥ 80% | ≥ 80% | – | – | ≥ 80% | ≥ 80% | – |
| CCn1c(-n2ncnc2N)nc2cncc(C(C)=NOCc3ccccc3)c21 [Compound 165] | – | – | ≥ 80% | ≥ 80% | ≥ 80% | ≥ 80% | ≥ 80% | ≥ 80% | ≥ 80% | – | ≥ 80% | – | ≥ 80% | ≥ 80% |

The next lines start with results.

| melting point | Compound | inhibition at 20 ppm (Gaeumannomyces graminis) | pest or weed control at 200 ppm (Plasmopara viticola) | inhibition at 20 ppm [1] | pest or weed control at 200 ppm [2] | inhibition at 20 ppm [3] | pest or weed control at 200 ppm (Pyrenophora teres) | inhibition at 20 ppm [4] | inhibition at 20 ppm [5] | pest or weed control at 200 ppm [6] | inhibition at 20 ppm [7] | inhibition at 20 ppm [8] | inhibition at 20 ppm (Sclerotinia sclerotiorum) | pest or weed control at 200 ppm [9] |
| --- | --- | --- | --- | --- | --- | --- | --- | --- | --- | --- | --- | --- | --- | --- |
| 142 to 146 °C | C=CCON=C(C)c1cncc2nc(-n3ncnc3N)n(CC)c12 [Compound 138] | ≥ 80% | – | ≥ 80% | – | ≥ 80% | ≥ 80% | ≥ 80% | ≥ 80% | ≥ 80% | ≥ 80% | – | – | – |
| 151 to 163 °C | CCn1c(-n2ncnc2N)nc2cncc(C(C)=NOCC3CC3)c21 [Compound 141] | ≥ 80% | – | ≥ 80% | – | ≥ 80% | ≥ 80% | ≥ 80% | ≥ 80% | ≥ 80% | – | ≥ 80% | – | – |
